Legend:
[1] = target: GDP-bound NRAS wild-type protein (Homo sapiens, UniProt P01111); assay: Binding to NRAS by surface plasmon resonance (SPR), Single Cycle Kinetics; conditions: KD ratio, GDP-bound NRAS wild-type vs GDP-bound KRAS wild-type, SPR
[2] = target: GDP-bound HRAS wild-type protein (Homo sapiens, UniProt P01112); assay: Binding to HRAS by surface plasmon resonance (SPR), Single Cycle Kinetics; conditions: KD ratio, GDP-bound HRAS wild-type vs GDP-bound KRAS wild-type, SPR
GDP-bound HRAS wild-type protein, sequence (P01112 whole entry): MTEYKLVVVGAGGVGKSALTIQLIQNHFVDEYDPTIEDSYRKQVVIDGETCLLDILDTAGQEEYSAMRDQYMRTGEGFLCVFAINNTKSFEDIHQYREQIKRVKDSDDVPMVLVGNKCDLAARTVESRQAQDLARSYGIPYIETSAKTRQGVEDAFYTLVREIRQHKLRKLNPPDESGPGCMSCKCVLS

GDP-bound NRAS wild-type protein, sequence (P01111 whole entry): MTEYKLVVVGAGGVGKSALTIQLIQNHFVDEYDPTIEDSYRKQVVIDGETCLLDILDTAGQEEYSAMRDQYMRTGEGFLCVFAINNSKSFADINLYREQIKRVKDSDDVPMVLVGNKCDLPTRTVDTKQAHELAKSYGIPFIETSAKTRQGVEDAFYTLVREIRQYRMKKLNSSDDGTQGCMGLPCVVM

Row | SMILES | NRAS/KRAS (ratio of KD value for NRAS to KD value for KRAS) [1] | HRAS/KRAS (ratio of KD value for HRAS to KD value for KRAS) [2]
1 | CCO[C@@H]1C[C@H]2C(=O)NC3(CC(F)(F)C3)C(=O)N(C)[C@@H](C3CCCC3)C(=O)N(C)[C@H](CC)CC(=O)N(C)[C@@H](CC3CC3)C(=O)N[C@@H]([C@@H](C)CC)C(=O)N(C)CC(=O)N(C)[C@H]3C/C=C\CCN(C3=O)[C@@H](Cc3ccc(C(F)(F)F)cc3)C(=O)N(C)CC(=O)N[C@@H](CCc3cc(F)c(C(F)(F)F)c(F)c3)C(=O)N2C1 [PP1633] | A (a compound having 10 or more and less than 20 is denoted as A) | B (a compound having 3 or more and less than 10 is denoted as B)
2 | CCO[C@@H]1C[C@H]2C(=O)NC3(CC(C)(C)C3)C(=O)N(C)[C@@H](C(CC)CC)C(=O)N(C)[C@H](C3CCC3)CC(=O)N(C)[C@@H](CC3CC3)C(=O)N[C@@H]([C@@H](C)CC)C(=O)N(C)CC(=O)N(C)[C@H]3C/C=C\CCN(C3=O)[C@@H](Cc3ccc(C(F)(F)F)cc3)C(=O)N(C)CC(=O)N[C@@H](CCc3cc(F)c(C(F)(F)F)c(F)c3)C(=O)N2C1 [PP1634] | A (a compound having 10 or more and less than 20 is denoted as A) | A (a compound having 10 or more and less than 20 is denoted as A)
3 | CCO[C@@H]1C[C@H]2C(=O)NC3(CC(C)(C)C3)C(=O)N(C)[C@@H](C3CCCC3)C(=O)N(C)[C@H](C3CCC3)CC(=O)N(C)[C@@H](CC3CC3)C(=O)N[C@@H]([C@@H](C)CC)C(=O)N(C)CC(=O)N(C)[C@H]3C/C=C\CCN(C3=O)[C@@H](Cc3ccc(C(F)(F)F)cc3)C(=O)N(C)CC(=O)N[C@@H](CCc3cc(F)c(C(F)(F)F)c(F)c3)C(=O)N2C1 [PP1635] | B (a compound having 3 or more and less than 10 is denoted as B) | A (a compound having 10 or more and less than 20 is denoted as A)
4 | CCO[C@@H]1C[C@H]2C(=O)NC3(CCC3)C(=O)N(C)[C@@H](C(CC)CC)C(=O)N(C)[C@H](C3CCC3)CC(=O)N(C)[C@@H](CC3CC3)C(=O)N[C@@H]([C@@H](C)CC)C(=O)N(C)CC(=O)N(C)[C@H]3C/C=C\CCN(C3=O)[C@@H](Cc3ccc(C(F)(F)F)cc3)C(=O)N(C)CC(=O)N[C@@H](CCc3cc(F)c(C(F)(F)F)c(F)c3)C(=O)N2C1 [PP1636] | A (a compound having 10 or more and less than 20 is denoted as A) | A (a compound having 10 or more and less than 20 is denoted as A)
5 | CCO[C@@H]1C[C@H]2C(=O)NC3(CCC3)C(=O)N(C)[C@@H](C3CCCC3)C(=O)N(C)[C@H](C3CCC3)CC(=O)N(C)[C@@H](CC3CC3)C(=O)N[C@@H]([C@@H](C)CC)C(=O)N(C)CC(=O)N(C)[C@H]3C/C=C\CCN(C3=O)[C@@H](Cc3ccc(C(F)(F)F)cc3)C(=O)N(C)CC(=O)N[C@@H](CCc3cc(F)c(C(F)(F)F)c(F)c3)C(=O)N2C1 [PP1637] | A (a compound having 10 or more and less than 20 is denoted as A) | A (a compound having 10 or more and less than 20 is denoted as A)
6 | CCO[C@@H]1C[C@H]2C(=O)NC3(CC(F)(F)C3)C(=O)N(C)[C@@H](C3CCCC3)C(=O)N(C)[C@H](C3CCC3)CC(=O)N(C)[C@@H](CC3CC3)C(=O)N[C@@H]([C@@H](C)CC)C(=O)N(C)CC(=O)N(C)[C@H]3C/C=C\CCN(C3=O)[C@@H](Cc3ccc(C(F)(F)F)cc3)C(=O)N(C)CC(=O)N[C@@H](CCc3cc(F)c(C(F)(F)F)c(F)c3)C(=O)N2C1 [PP1639] | A (a compound having 10 or more and less than 20 is denoted as A) | A (a compound having 10 or more and less than 20 is denoted as A)
7 | CCO[C@@H]1C[C@H]2C(=O)NC3(CC(C)(C)C3)C(=O)N(C)[C@@H](C3CCCC3)C(=O)N(C)[C@H](C(=O)N(C)C)CC(=O)N(C)[C@@H](C)C(=O)N[C@@H]([C@@H](C)CC)C(=O)N(C)CC(=O)N(C)[C@H]3C/C=C\CCN(C3=O)[C@@H](Cc3ccc(C(F)(F)F)cc3)C(=O)N(C)CC(=O)N[C@@H](CCc3cc(F)c(C(F)(F)F)c(F)c3)C(=O)N2C1 [PP1641] | A (a compound having 10 or more and less than 20 is denoted as A) | A (a compound having 10 or more and less than 20 is denoted as A)
8 | CCO[C@@H]1C[C@H]2C(=O)NC3(CC(C)(C)C3)C(=O)N(C)[C@@H](C3CCCC3)C(=O)N(C)[C@H](C(=O)N(C)CC)CC(=O)N(C)[C@@H](CC(F)F)C(=O)N[C@@H]([C@@H](C)CC)C(=O)N(C)CC(=O)N(C)[C@H]3C/C=C\CCN(C3=O)[C@@H](Cc3ccc(C(F)(F)F)cc3)C(=O)N(C)CC(=O)N[C@@H](CCc3cc(F)c(C(F)(F)F)c(F)c3)C(=O)N2C1 [PP1643] | A (a compound having 10 or more and less than 20 is denoted as A) | A (a compound having 10 or more and less than 20 is denoted as A)
9 | CCO[C@@H]1C[C@H]2C(=O)NC3(CC(C)(C)C3)C(=O)N(C)[C@@H](C3CCCC3)C(=O)N(C)[C@H](C(=O)N(C)C)CC(=O)N(C)[C@@H](CC(F)(F)F)C(=O)N[C@@H]([C@@H](C)CC)C(=O)N(C)CC(=O)N(C)[C@H]3C/C=C\CCN(C3=O)[C@@H](Cc3ccc(C(F)(F)F)cc3)C(=O)N(C)CC(=O)N[C@@H](CCc3cc(F)c(C(F)(F)F)c(F)c3)C(=O)N2C1 [PP1644] | A (a compound having 10 or more and less than 20 is denoted as A) | A (a compound having 10 or more and less than 20 is denoted as A)
10 | CCC[C@H]1C(=O)N[C@@H]([C@@H](C)CC)C(=O)N(C)CC(=O)N(C)[C@H]2C/C=C\CCN(C2=O)[C@@H](Cc2ccc(C(F)(F)F)cc2)C(=O)N(C)CC(=O)N[C@@H](CCc2cc(F)c(C(F)(F)F)c(F)c2)C(=O)N2C[C@H](OCC)C[C@H]2C(=O)NC2(CC(C)(C)C2)C(=O)N(C)[C@@H](C2CCCC2)C(=O)N(C)[C@H](C(=O)N(C)C)CC(=O)N1C [PP1645] | A (a compound having 10 or more and less than 20 is denoted as A) | A (a compound having 10 or more and less than 20 is denoted as A)
11 | CCC[C@H]1C(=O)N[C@@H]([C@@H](C)CC)C(=O)N(C)CC(=O)N(C)[C@H]2C/C=C\CCN(C2=O)[C@@H](Cc2ccc(C(F)(F)F)cc2)C(=O)N(C)CC(=O)N[C@@H](CCc2cc(F)c(C(F)(F)F)c(F)c2)C(=O)N2C[C@H](OCC)C[C@H]2C(=O)NC2(CC(C)(C)C2)C(=O)N(C)[C@@H](C2CCCC2)C(=O)N(C)[C@H](C(=O)N(C)CC)CC(=O)N1C [PP1646] | A (a compound having 10 or more and less than 20 is denoted as A) | A (a compound having 10 or more and less than 20 is denoted as A)
12 | CCO[C@@H]1C[C@H]2C(=O)NC3(CC(C)(C)C3)C(=O)N(C)[C@@H](C3CCCC3)C(=O)N(C)[C@H](C(=O)N(C)CC)CC(=O)N(C)[C@@H](CC3CC3)C(=O)N[C@@H]([C@@H](C)CC)C(=O)N(C)CC(=O)N(C)[C@H]3C/C=C\CCN(C3=O)[C@@H](Cc3ccc(C(F)(F)F)cc3)C(=O)N(C)CC(=O)N[C@@H](CCc3cc(F)c(C(F)(F)F)c(F)c3)C(=O)N2C1 [PP1648] | A (a compound having 10 or more and less than 20 is denoted as A) | A (a compound having 10 or more and less than 20 is denoted as A)
13 | CCCC[C@H]1C(=O)N[C@@H]([C@@H](C)CC)C(=O)N(C)CC(=O)N(C)[C@H]2C/C=C\CCN(C2=O)[C@@H](Cc2ccc(C(F)(F)F)cc2)C(=O)N(C)CC(=O)N[C@@H](CCc2cc(F)c(C(F)(F)F)c(F)c2)C(=O)N2C[C@H](OCC)C[C@H]2C(=O)NC2(CC(C)(C)C2)C(=O)N(C)[C@@H](C2CCCC2)C(=O)N(C)[C@H](C(=O)N(C)C)CC(=O)N1C [PP1649] | A (a compound having 10 or more and less than 20 is denoted as A) | B (a compound having 3 or more and less than 10 is denoted as B)
14 | CCO[C@@H]1C[C@H]2C(=O)NC3(CC(C)(C)C3)C(=O)N(C)[C@@H](C3CCCC3)C(=O)N(C)[C@H](C(=O)N(C)C)CC(=O)N(C)[C@@H](CC(C)C)C(=O)N[C@@H]([C@@H](C)CC)C(=O)N(C)CC(=O)N(C)[C@H]3C/C=C\CCN(C3=O)[C@@H](Cc3ccc(C(F)(F)F)cc3)C(=O)N(C)CC(=O)N[C@@H](CCc3cc(F)c(C(F)(F)F)c(F)c3)C(=O)N2C1 [PP1650, (2S,8S,12R,14S,20S,23S,27S,30S,36S,38Z)-20-cyclopentyl-8-[2-[3,5-difluoro-4-(trifluoromethyl)phenyl]ethyl]-12-ethoxy-27-isobutyl-N,N,3′,3′,4,19,22,26,32,35-decamethyl-30-[(1S)-1-methylpropyl]-3,6,9,15,18,21,25,28,31,34,42-undecaoxo-2-[[4-(trifluoromethyl)phenyl]methyl]spiro[1,4,7,10,16,19,22,26,29,32,35-undecazatricyclo[34.5.1.0^10,14]dotetracont-38-ene-17,1′-cyclobutane]-23-carboxamide] | A (a compound having 10 or more and less than 20 is denoted as A) | A (a compound having 10 or more and less than 20 is denoted as A)
15 | CCO[C@@H]1C[C@H]2C(=O)NC3(CC(C)(C)C3)C(=O)N(C)[C@@H](C3CCCC3)C(=O)N(C)[C@H](C(=O)N(C)C)CC(=O)N(C)[C@@H](CC3CCC3)C(=O)N[C@@H]([C@@H](C)CC)C(=O)N(C)CC(=O)N(C)[C@H]3C/C=C\CCN(C3=O)[C@@H](Cc3ccc(C(F)(F)F)cc3)C(=O)N(C)CC(=O)N[C@@H](CCc3cc(F)c(C(F)(F)F)c(F)c3)C(=O)N2C1 [PP1651] | A (a compound having 10 or more and less than 20 is denoted as A) | B (a compound having 3 or more and less than 10 is denoted as B)
